Experimental data from publication PMC10461823, “ABCH2 transporter mediates deltamethrin uptake and toxicity in the malaria vector Anopheles coluzzii” (PLOS Pathogens, 2023).

Assays:
ABCH2 [1] = molecular target: T1, ABCH2 (Anopheles coluzzii, UniProt A0A6E8VHH0); assay: malachite green ATPase assay, Sf9 inverted membrane vesicles; type: biochemical; conditions: basal activity without deltamethrin, 1 mM ATP, MgCl2, Tris pH 8, 37 C, 15 min; empty-bacmid background subtracted
T1 construct: full ORF, codon-optimised for S. frugiperda, pFastBac1 baculovirus in Sf9 cells, untagged, membrane vesicles; about 85 kDa half-transporter, proposed homodimer
T1 sequence (A0A6E8VHH0 1-760): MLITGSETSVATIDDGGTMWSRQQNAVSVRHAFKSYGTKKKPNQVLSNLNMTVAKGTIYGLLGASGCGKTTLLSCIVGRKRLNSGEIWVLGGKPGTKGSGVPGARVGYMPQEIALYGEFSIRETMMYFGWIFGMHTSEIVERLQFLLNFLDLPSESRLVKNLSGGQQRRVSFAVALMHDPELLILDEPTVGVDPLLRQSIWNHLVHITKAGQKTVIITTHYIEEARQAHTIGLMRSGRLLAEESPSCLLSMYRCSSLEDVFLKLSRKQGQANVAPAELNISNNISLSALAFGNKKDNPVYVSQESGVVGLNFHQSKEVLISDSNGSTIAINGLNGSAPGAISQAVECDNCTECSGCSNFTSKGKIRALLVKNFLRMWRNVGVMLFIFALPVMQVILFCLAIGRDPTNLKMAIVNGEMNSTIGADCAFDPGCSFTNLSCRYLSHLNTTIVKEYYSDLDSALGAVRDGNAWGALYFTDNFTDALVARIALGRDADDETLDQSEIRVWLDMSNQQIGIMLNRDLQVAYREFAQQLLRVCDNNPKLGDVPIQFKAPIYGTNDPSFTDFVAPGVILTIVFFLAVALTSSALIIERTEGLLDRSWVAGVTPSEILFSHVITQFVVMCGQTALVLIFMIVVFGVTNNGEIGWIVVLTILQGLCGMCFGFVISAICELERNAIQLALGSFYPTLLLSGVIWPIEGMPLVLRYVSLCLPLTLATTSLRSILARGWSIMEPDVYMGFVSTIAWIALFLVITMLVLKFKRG

ABCH2 [2] = molecular target: T1, ABCH2; assay: as above; type: biochemical; conditions: 120 uM deltamethrin, DMSO/ethanol, 1 mM ATP, MgCl2, Tris pH 8, 37 C, 15 min; empty-bacmid background subtracted; transport not shown directly
[3] = molecular target: ABCH2 transporter (ATP-Binding Cassette transporter from the H family) of Anopheles coluzzii (Anopheles coluzzii)

Nc1ncnc2c1ncn2[C@@H]1O[C@H](COP(=O)(O)OP(=O)(O)OP(=O)(O)O)[C@@H](O)[C@H]1O [ATP]
malachite green ATPase assay, Sf9 inverted membrane vesicles (ABCH2 [1]): indicate an ATP hydrolysis specific to ABCH2 expression

CC1(C)[C@H](C(=O)O[C@H](C#N)c2cccc(Oc3ccccc3)c2)[C@@H]1C=C(Br)Br [deltamethrin]
fold stimulation of basal ATPase activity at 120 uM (ABCH2 [2]): ~ 1.6 fold

ABCH2 transporter (ATP-Binding Cassette transporter from the H family) of Anopheles coluzzii (natural protein)
estimated basal rate of ATP hydrolysis of ABCH2 in inverted membrane vesicles of Sf9 cells expressing ABCH2 on its own (pmoles Pi/pmol ABCH2/minute) [3]: 178
